Results: patent US20260062412A1, “NITROGEN-CONTAINING HETEROCYCLIC COMPOUND HAVING MYT1 INHIBITORY ACTIVITY” (CHUGAI SEIYAKU KABUSHIKI KAISHA, priority 2023, published 2026)

Biological target: MYT1 protein (Homo sapiens (Human), UniProt Q99640)
Experiment: Test for binding to ATP binding site of MYT1 (Kinase Tracer 178 / Eu-Anti-GST antibody TR-FRET)
Settings: ATP binding site of MYT1, 30 minutes at room temperature
Procedure: The binding capacity of each compound to the ATP binding site of MYT1 Kinase protein was evaluated. 5× Kinase Buffer A (manufactured by Thermo Fisher Scientific Inc., PV3189) was diluted to 5 times with Milli-Q water, thereby preparing 1× Kinase Buffer. Using 1× Kinase Buffer, MYT1 protein (manufactured by Carna Biosciences, Inc.) was diluted to a concentration of 0.005 μM and Eu-Anti-GST Antibody was diluted to a concentration of 1 μM. […] To a 96 well-plate, 2.5 μL of a compound diluted with DMSO was added. […] The mixture was well mixed and then allowed to stand at room temperature for 30 minutes. Thereafter, fluorescence wavelengths of 665 nm and 615 nm generated by irradiation with excitation light of 340 nm were detected using Envision (manufactured by PerkinElmer). The proportion of Tracer bound to MYT1 protein was calculated for every condition by dividing the intensity at the fluorescence wavelength of 665 nm by the intensity at the fluorescence wavelength of 615 nm.

Sequence of MYT1 protein (Q99640 whole entry): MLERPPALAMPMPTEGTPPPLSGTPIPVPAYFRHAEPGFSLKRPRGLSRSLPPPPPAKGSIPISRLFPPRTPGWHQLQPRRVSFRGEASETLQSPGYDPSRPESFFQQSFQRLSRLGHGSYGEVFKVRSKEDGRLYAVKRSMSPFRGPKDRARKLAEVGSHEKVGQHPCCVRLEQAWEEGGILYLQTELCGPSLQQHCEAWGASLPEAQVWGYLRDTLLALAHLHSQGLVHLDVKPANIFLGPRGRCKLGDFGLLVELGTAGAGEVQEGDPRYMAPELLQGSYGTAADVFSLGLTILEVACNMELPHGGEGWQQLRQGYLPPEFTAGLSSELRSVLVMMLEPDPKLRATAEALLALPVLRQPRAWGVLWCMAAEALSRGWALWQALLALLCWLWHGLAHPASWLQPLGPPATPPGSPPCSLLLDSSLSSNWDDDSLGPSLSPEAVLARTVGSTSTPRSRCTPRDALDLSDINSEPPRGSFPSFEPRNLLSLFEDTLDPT

| IC50 [nM] | Compound |
| --- | --- |
| 310 | Nc1c(-c2c(F)ccc3[nH]ncc23)c2cc(C3CC3)c3ncccc3c2[nH]c1=O (atropisomer, axis not shown) [Compound C157, (R)-3-amino-6-cyclopropyl-4-(5-fluoro-1H-indazol-4-yl)-1H-1,7-phenanthrolin-2-one] |
| 1.9 | Nc1c(-c2c(F)ccc3[nH]ncc23)c2cc(C3CC3)c3ncccc3c2[nH]c1=O (atropisomer, axis not shown) [Compound C158, (S)-3-amino-6-cyclopropyl-4-(5-fluoro-1H-indazol-4-yl)-1H-1,7-phenanthrolin-2-one] |
| 29 | CC(C)Oc1cc2c(-c3ccc(Cl)c4[nH]ncc34)c(N)c(=O)[nH]c2cc1F [Compound A1, 3-Amino-4-(7-chloro-1H-indazol-4-yl)-7-fluoro-6-propan-2-yloxy-1H-quinolin-2-one] |
| 9.3 | Nc1c(-c2ccc(Cl)c3[nH]ncc23)c2cc(OCCC(F)F)c(F)cc2[nH]c1=O [Compound A2, 3-Amino-4-(7-chloro-1H-indazol-4-yl)-6-(3,3-difluoropropoxy)-7-fluoro-1H-quinolin-2-one] |
| 8.5 | Nc1c(-c2ccc(Cl)c3[nH]ncc23)c2cc(OCC3CC3)c(F)cc2[nH]c1=O [Compound A3, 3-Amino-4-(7-chloro-1H-indazol-4-yl)-6-(cyclopropylmethoxy)-7-fluoro-1H-quinolin-2-one] |
| 3.8 | Nc1c(-c2ccc(Cl)c3[nH]ncc23)c2cc(O[C@H]3C[C@H](F)C3)c(F)cc2[nH]c1=O [Compound A4, 3-Amino-4-(7-chloro-1H-indazol-4-yl)-7-fluoro-6-((1r,3r)-3-fluorocyclobutyl)oxy-1H-quinolin-2-one] |
| 1.8 | N#C[C@H]1C[C@H](Oc2cc3c(-c4ccc(Cl)c5[nH]ncc45)c(N)c(=O)[nH]c3cc2F)C1 [Compound A5, (1r,3r)-3-[[3-Amino-4-(7-chloro-1H-indazol-4-yl)-7-fluoro-2-oxo-1H-quinolin-6-yl]oxy]cyclobutane-1-carbonitrile] |
| 3 | Nc1c(-c2ccc(Cl)c3[nH]ncc23)c2cc(OCCCF)c(F)cc2[nH]c1=O [Compound A6, 3-Amino-4-(7-chloro-1H-indazol-4-yl)-7-fluoro-6-(3-fluoropropoxy)-1H-quinolin-2-one] |
| 4.4 | Nc1c(-c2ccc(Cl)c3[nH]ncc23)c2cc(OC3CCC3)c(F)cc2[nH]c1=O [Compound A7, 3-Amino-4-(7-chloro-1H-indazol-4-yl)-6-cyclobutyloxy-7-fluoro-1H-quinolin-2-one] |
| 23 | CC(C)Oc1cc2c(-c3ccc(Cl)c4[nH]ncc34)c(N)c(=O)[nH]c2cc1Cl [Compound A8, 3-Amino-7-chloro-4-(7-chloro-1H-indazol-4-yl)-6-propan-2-yloxy-1H-quinolin-2-one] |
| 3.9 | Nc1c(-c2ccc(Cl)c3[nH]ncc23)c2cc(OCCC(F)F)c(Cl)cc2[nH]c1=O [Compound A9, 3-Amino-7-chloro-4-(7-chloro-1H-indazol-4-yl)-6-(3,3-difluoropropoxy)-1H-quinolin-2-one] |
| 4.3 | Nc1c(-c2ccc(Cl)c3[nH]ncc23)c2cc(OC3CCC3)c(Cl)cc2[nH]c1=O [Compound A10, 3-Amino-7-chloro-4-(7-chloro-1H-indazol-4-yl)-6-cyclobutyloxy-1H-quinolin-2-one] |
| 3.9 | Nc1c(-c2ccc(Cl)c3[nH]ncc23)c2cc(O[C@H]3C[C@H](F)C3)c(Cl)cc2[nH]c1=O [Compound A11, 3-Amino-7-chloro-4-(7-chloro-1H-indazol-4-yl)-6-((1r,3r)-3-fluorocyclobutyl)oxy-1H-quinolin-2-one] |
| 18 | Nc1c(-c2ccc(Cl)c3[nH]ncc23)c2cc(OCC3CC3)c(Cl)cc2[nH]c1=O [Compound A13, 3-Amino-7-chloro-4-(7-chloro-1H-indazol-4-yl)-6-(cyclopropylmethoxy)-1H-quinolin-2-one] |
| 2.1 | Nc1c(-c2ccc(Cl)c3[nH]ncc23)c2cc(OCCCF)c(Cl)cc2[nH]c1=O [Compound A14, 3-Amino-7-chloro-4-(7-chloro-1H-indazol-4-yl)-6-(3-fluoropropoxy)-1H-quinolin-2-one] |
| 13 | Cc1nc2[nH]c(=O)c(N)c(-c3ccc(Cl)c4[nH]ncc34)c2cc1O[C@H]1C[C@H](F)C1 [Compound A15, 3-Amino-4-(7-chloro-1H-indazol-4-yl)-6-((1r,3r)-3-fluorocyclobutyl)oxy-7-methyl-1H-1,8-naphthyridin-2-one] |
| 5 | Cc1nc2[nH]c(=O)c(N)c(-c3ccc(Cl)c4[nH]ncc34)c2cc1O[C@H]1C[C@H](C#N)C1 [Compound A16, (1r,3r)-3-[[6-Amino-5-(7-chloro-1H-indazol-4-yl)-2-methyl-7-oxo-8H-1,8-naphthyridine-3-yl]oxy]cyclobutane-1-carbonitrile] |
| 27 | Nc1c(-c2ccc(Cl)c3[nH]ncc23)c2cc(Cl)cc(Br)c2[nH]c1=O [Compound A17, 3-Amino-8-bromo-6-chloro-4-(7-chloro-1H-indazol-4-yl)-1H-quinolin-2-one] |
| 87 | C#Cc1cc(Cl)cc2c(-c3ccc(Cl)c4[nH]ncc34)c(N)c(=O)[nH]c12 [Compound A18, 3-Amino-6-chloro-4-(7-chloro-1H-indazol-4-yl)-8-ethynyl-1H-quinolin-2-one] |
| 600 | CC(C)c1cc(Cl)cc2c(-c3ccc(Cl)c4[nH]ncc34)c(N)c(=O)[nH]c12 [Compound A19, 3-Amino-6-chloro-4-(7-chloro-1H-indazol-4-yl)-8-propan-2-yl-1H-quinolin-2-one] |
| 12 | Nc1c(-c2ccc(Cl)c3[nH]ncc23)c2cc(Cl)cc(Cl)c2[nH]c1=O [Compound A20, 3-Amino-6,8-dichloro-4-(7-chloro-1H-indazol-4-yl)-1H-quinolin-2-one] |
| 20 | N#Cc1cc(Cl)cc2c(-c3ccc(Cl)c4[nH]ncc34)c(N)c(=O)[nH]c12 [Compound A21, 3-Amino-6-chloro-4-(7-chloro-1H-indazol-4-yl)-2-oxo-1H-quinoline-8-carbonitrile] |
| 270 | CCCc1cc(Cl)cc2c(-c3ccc(Cl)c4[nH]ncc34)c(N)c(=O)[nH]c12 [Compound A22, 3-Amino-6-chloro-4-(7-chloro-1H-indazol-4-yl)-8-propyl-1H-quinolin-2-one] |
| 34 | C=Cc1cc(Cl)cc2c(-c3ccc(Cl)c4[nH]ncc34)c(N)c(=O)[nH]c12 [Compound A23, 3-Amino-6-chloro-4-(7-chloro-1H-indazol-4-yl)-8-ethenyl-1H-quinolin-2-one] |
| 110 | Nc1c(-c2ccc(Cl)c3[nH]ncc23)c2cc(Cl)cc(C3CC3)c2[nH]c1=O [Compound A24, 3-Amino-6-chloro-4-(7-chloro-1H-indazol-4-yl)-8-cyclopropyl-1H-quinolin-2-one] |
| 45 | CCc1cc(Cl)cc2c(-c3ccc(Cl)c4[nH]ncc34)c(N)c(=O)[nH]c12 [Compound A25, 3-Amino-6-chloro-4-(7-chloro-1H-indazol-4-yl)-8-ethyl-1H-quinolin-2-one] |
| 11 | Cc1cc(Cl)cc2c(-c3ccc(Cl)c4[nH]ncc34)c(N)c(=O)[nH]c12 [Compound A26, 3-Amino-6-chloro-4-(7-chloro-1H-indazol-4-yl)-8-methyl-1H-quinolin-2-one] |
| 47 | CCc1cc2[nH]c(=O)c(N)c(-c3ccc(Cl)c4[nH]ncc34)c2cc1Cl [Compound A28, 3-Amino-6-chloro-4-(7-chloro-1H-indazol-4-yl)-7-ethyl-1H-quinolin-2-one] |
